Conditions: Liquid; for speed of sound: Frequency=5 MHz, Pulse-echo method; for mass density: Vibrating tube method

CCCCCCCCC [nonane]
Conditions	mass density [kg/m3]	speed of sound [m/s]
283.13 K, 1090 kPa	–	1273.9
283.13 K, 30100 kPa	–	1432.4
283.13 K, 59970 kPa	–	1563.7
283.13 K, 90370 kPa	–	1676.8
283.13 K, 120250 kPa	–	1774.7
283.13 K, 149990 kPa	–	1862.2
283.13 K, 180130 kPa	–	1943.2
283.13 K, 210070 kPa	–	2017.3
283.13 K, 240000 kPa	–	2086.3
283.13 K, 270320 kPa	–	2151.8
283.13 K, 300010 kPa	–	2212.5
283.13 K, 330300 kPa	–	2271
283.13 K, 360220 kPa	–	2326
283.13 K, 389880 kPa	–	2378.1
283.15 K, 1010 kPa	726.22	–
283.15 K, 5020 kPa	729.22	–
283.15 K, 5040 kPa	729.17	–
283.15 K, 10020 kPa	732.75	–
283.15 K, 15020 kPa	736.14	–
283.15 K, 20040 kPa	739.41	–
283.15 K, 25020 kPa	742.54	–
283.15 K, 30040 kPa	745.52	–
283.15 K, 35050 kPa	748.45	–
283.15 K, 40010 kPa	751.23	–
283.15 K, 45050 kPa	753.99	–
283.15 K, 50010 kPa	756.62	–
283.15 K, 55020 kPa	759.19	–
283.15 K, 60030 kPa	761.66	–
283.15 K, 65010 kPa	764.08	–
298.15 K, 1020 kPa	714.83	–
298.15 K, 1040 kPa	–	1212.6
298.15 K, 5010 kPa	718.08	–
298.15 K, 5040 kPa	718.12	–
298.15 K, 10030 kPa	721.94	–
298.15 K, 15060 kPa	725.7	–
298.15 K, 20040 kPa	729.17	–
298.15 K, 25040 kPa	732.54	–
298.15 K, 30010 kPa	735.76	–
298.15 K, 30040 kPa	–	1380.2
298.15 K, 35050 kPa	738.87	–
298.15 K, 40010 kPa	741.88	–
298.15 K, 45060 kPa	744.79	–
298.15 K, 50010 kPa	747.56	–
298.15 K, 55040 kPa	750.31	–
298.15 K, 60020 kPa	752.92	–
298.15 K, 60130 kPa	–	1518
298.15 K, 65010 kPa	755.48	–
298.15 K, 90110 kPa	–	1633.4
298.15 K, 120200 kPa	–	1734.7
298.15 K, 150120 kPa	–	1824.9
298.15 K, 180370 kPa	–	1907.9
298.15 K, 210410 kPa	–	1983.7
298.15 K, 240020 kPa	–	2053.1
298.15 K, 270230 kPa	–	2119.6
298.15 K, 300100 kPa	–	2181.4
298.15 K, 330260 kPa	–	2240.5
298.15 K, 360030 kPa	–	2296
298.15 K, 390030 kPa	–	2349.2
323.14 K, 1020 kPa	–	1112.3
323.14 K, 30050 kPa	–	1297.8
323.14 K, 60210 kPa	–	1445.2
323.14 K, 90150 kPa	–	1566.7
323.14 K, 120240 kPa	–	1672.3
323.14 K, 150130 kPa	–	1765.5
323.14 K, 179980 kPa	–	1850.1
323.14 K, 210410 kPa	–	1929.2
323.14 K, 239980 kPa	–	2000.4
323.14 K, 270330 kPa	–	2068.7
323.14 K, 300070 kPa	–	2131.6
323.14 K, 330050 kPa	–	2191.3
323.14 K, 360040 kPa	–	2247.9
323.14 K, 390060 kPa	–	2301.7
323.15 K, 1030 kPa	695.27	–
323.15 K, 5030 kPa	699.04	–
323.15 K, 5060 kPa	699.09	–
323.15 K, 10050 kPa	703.57	–
323.15 K, 15020 kPa	707.81	–
323.15 K, 20050 kPa	711.84	–
323.15 K, 25020 kPa	715.63	–
323.15 K, 30020 kPa	719.22	–
323.15 K, 35080 kPa	722.75	–
323.15 K, 40050 kPa	726.09	–
323.15 K, 45060 kPa	729.27	–
323.15 K, 50030 kPa	732.36	–
323.15 K, 55050 kPa	735.35	–
323.15 K, 60010 kPa	738.19	–
323.15 K, 65010 kPa	741.02	–
348.14 K, 1040 kPa	–	1017.2
348.14 K, 1060 kPa	–	1018.1
348.14 K, 30150 kPa	–	1220.8
348.14 K, 59870 kPa	–	1375.2
348.14 K, 90060 kPa	–	1503.8
348.14 K, 120210 kPa	–	1613.8
348.14 K, 150180 kPa	–	1710.4
348.14 K, 180310 kPa	–	1798.1
348.14 K, 210230 kPa	–	1877.8
348.14 K, 240360 kPa	–	1951.8
348.14 K, 269990 kPa	–	2019.2
348.14 K, 300420 kPa	–	2084.3
348.14 K, 330170 kPa	–	2144.5
348.14 K, 360170 kPa	–	2202.2
348.14 K, 390070 kPa	–	2256.5
348.15 K, 1010 kPa	675.18	–
348.15 K, 5030 kPa	679.76	–
348.15 K, 5040 kPa	679.76	–
348.15 K, 10030 kPa	685	–
348.15 K, 15020 kPa	689.84	–
348.15 K, 20040 kPa	694.44	–
348.15 K, 25050 kPa	698.79	–
348.15 K, 30030 kPa	702.84	–
348.15 K, 35050 kPa	706.74	–
348.15 K, 40020 kPa	710.4	–
348.15 K, 45070 kPa	714.01	–
348.15 K, 50040 kPa	717.37	–
348.15 K, 55050 kPa	720.67	–
348.15 K, 60000 kPa	723.79	–
348.15 K, 65040 kPa	726.84	–
373.14 K, 1020 kPa	–	924.94
373.14 K, 30120 kPa	–	1147.9
373.14 K, 60040 kPa	–	1312.4
373.14 K, 90420 kPa	–	1447
373.14 K, 120190 kPa	–	1559.5
373.14 K, 150200 kPa	–	1659
373.14 K, 180540 kPa	–	1749
373.14 K, 210010 kPa	–	1829.3
373.14 K, 240370 kPa	–	1905.5
373.14 K, 270130 kPa	–	1974.7
373.14 K, 300130 kPa	–	2040.3
373.14 K, 330240 kPa	–	2102.3
